Measured values: publication PMC3422259, “Additive Mixture Effects of Estrogenic Chemicals in Human Cell-Based Assays Can Be Influenced by Inclusion of Chemicals with Differing Effect Profiles” (PLoS ONE, 2012)
“Also recorded” adds a separate entry of the source. Read-outs that look alike come from different tables or passages of the source.

What was measured:
yeast estrogen screen = system: yeast estrogen screen; design: method as in PMID 19499261; details: cited from earlier work
MCF-7 cells [1] = test: Estrogenicity assay, mitogenic endpoint (ESCREEN); details: for Signs of estrogenicity (in words): chemical screened as potential modulator, tested alone; for Signs of estrogenicity: Active at concentration: ‘Active’ = positive signal clearly distinguishable from assay variability and noise
Description: The ESCREEN assay was performed using cloned MCF-7 cells (described in [6], gifted from A. Soto, Boston) and the established ESCREEN method was followed using an adapted 96-well format. Cells were cultured in DMEM (5% FCS). For experiments, cells were seeded in clear polystyrene 96 well plates at a density of 2,500 cells/well and allowed to attach for 24 hours before washing with rinse media (phenol red-free DMEM, no supplements). […] Test chemicals were dissolved in ethanol to give stock solutions of millimolar concentrations. Test and control solutions were diluted prior to application in dosing media (phenol red free DMEM, 10% charcoal-dextran stripped FCS). The final concentration of ethanol was 0.5% in test and control wells. […] At all stages, media removal from cells was carried out gently and in a controlled fashion by use of an electronic multichannel pipette set to the lowest speed possible. Controls were run as eight replicate wells per plate and compounds were tested in a dilution series comprising eight concentrations, each concentration tested in two replicate wells per plate. The plate layout was designed to reduce variation due to evaporation and spreading of test chemicals, and had been previously optimised in the laboratory. After application of test solutions, plates were incubated for 120 hours before fixation with 10% trichloroacetic acid and sulforhodamine B (SRB) staining to measure protein and allow the indirect quantification of cell number.
(§1) Experiments were performed on different days meaning that results for different dilution series and different batches of the test chemicals were obtained on different days. Each single chemical was tested in three or more independent experiments. Use of normalisation meant that data from different experiments could be reliably combined and compared, as discussed previously. Data was expressed relative to the positive control, rather than as fold change from the vehicle response, for two reasons.
(§2) Results from regression analysis for each test chemicals were used to predict the CA effect for fixed-ratio mixtures designed on 1) equi-effective concentrations (balanced design), 2) possible human serum levels (non-balanced design). The original mathematical formulation of CA that defines for a mixture composed of n components with concentration c1 of the first component, c2 of the second component, and cn for the n-th component a combination effect X is [drawing 1] (1) Here, ECX1, ECX1 …, ECXn are the concentrations of the individual components that on their own produce the same effect X as the mixture, [15] The quotients cn/ECXn are called toxic units and scale all compounds in the mixture relative to their toxicity. They can be interpreted as the contribution of the compound to the total mixture concentration that is expected to produce the mixture effect X. According to equation 1, a mixture effect for a pre-defined effect level X is described only implicitly. However, if the individual concentrations ci are expressed as relative fractions pi to the total mixture concentration ECxMix, then equation 1 can be re-arranged to [drawing 2] (2) which allows the direct calculation of the mixture concentration that is expected to produce the mixture effect X. To form a prediction curve, equation 2 is iterated through for various effect levels resulting in sets of effects and their associated predicted mixture concentration which are then plotted to produce a graph of the effect prediction.
Both equations 1 and 2 require knowledge of the concentration of each mixture component that on its own produces the effect magnitude under consideration. For this reason, these equations cannot be used for predicting mixture effects that exceed the maximal effect of the least efficacious component, because those effect concentrations cannot be defined.

MCF-7 cells [2] = test: Modulation studies (ESCREEN only): effect of potential modulators on the response evoked by a reference mixture of estrogens (REFmix); assay type: cell-based, human; details: for Modulation of the REFmix effect (in words) / Concentration at which complete suppression (full inhibition) of REFmix effect was reached: ESCREEN; for Observed modulation: ESCREEN response to REFmix (Mixture 3d, ca. 50% effect), screening, one experiment; for Concentration at which complete suppression (full inhibition) of REFmix effect was reached: individual modulator screening
From the text: Modulation studies comprised screening of individual modulators in low power experiments accompanied by parallel testing of an equimolar mixture of all modulators. This combination of low power screening and mixture testing provides the opportunity to assess a high number of chemicals (16 in this case) without a prohibitive amount of experimental effort. In this case the effects of 16 modulators could be evaluated using a total of 19 experimental plates (16 for screening and 3 for mixture testing).
To normalize for small changes in the absolute value of the positive control and the control response to the selected REFmix concentration, the response evoked by the REFmix control on each plate was defined as the 50% effect and all modulator study results are normalized to that value.
A mixture of modulators (MODmix) was also tested and was composed with a fixed ratio of equimolar concentrations, since the activity of each modulator was not known at the time of designing the mixture.
In these modulator studies, we examined 16 single chemicals (listed in Table 7) and an equimolar mixture of all 16 components for their ability to modulate the effects of a reference mixture (REFmix) which contained 14 food additives and contaminants (Table 1, Mixture 3d). […] Single chemicals were tested individually in single experiments (screening) and then a mixture composed using a fixed ratio of equal molarities was subjected to repeated testing.
Figure 5 Results of modulation studies. […] Experimental results are shown as grey circles representing each replicate (duplicate testing within the assay) and obtained in three independent (A) or one (B–Q) experiment (s). Experimental results were normalized by setting the value observed for the REFmix alone, the concentration of which was selected to evoke a […] of ca. 50%, to 0.5. The positive control values (black circles, eight replicates per experimental plate, 25 nM estradiol) are indicated adjacent to the y-axis. […] A black line indicates a LOESS spline fit to the data (A–Q) and a grey line indicates linear regression fit to the data for individual modulators (B–Q). A vertical dotted line is drawn at a mixture concentration of 1.6 µM (A) or at the concentration of each modulator present at that mixture concentration (0.1 uM, B–Q). Visual inspection of the individual modulator results (B–Q) was used to identify possible modulation, i.e. when the experimental data appears to deviate from the linear regression, or when the linear regression is not horizontal, and when the magnitude of the modulation is outside the variation expected in the assay.

T47D-KBluc cells = test: cells; details: ERLUX; for Concentration at which estrogenic activity seen: and above
Description: T47D-KBluc cells were obtained from the ATCC and the protocol established by the depositing authors was followed. Cells were routinely grown in RPMI media (with 10% foetal calf serum (FCS)). For seven days prior to experiments, cells were maintained in low estrogen conditions by the use of pre-assay media (RPMI, 10% charcoal-dextran stripped FCS, no antibiotics). For experiments, cells were seeded in white polystyrene 96 well plates at a density of 10,000 cells/well and allowed to attach for 24 hours before removal of media, and application of test chemicals. Test chemicals were dissolved in ethanol to give stock solutions of millimolar concentrations. Test and control solutions were obtained by dilution of ethanolic stocks in dosing media (phenol red-free RPMI, 5% charcoal-dextran stripped FCS, no antibiotics), and in all cases the final concentration of ethanol was 0.5%. The positive control was 1 nM estradiol. Positive and vehicle controls were run as eight replicate wells per plate, and compounds were tested in a dilution series comprising eight concentrations, each concentration tested in triplicate. As recommended by Wilson et al. two additional controls were also included on each plate: 1) vehicle control plus an antiestrogen, ICI 182,780 (1 µM), and 2) positive control plus ICI 182,780 (1 µM). […] A crude measure of toxicity was provided by comparing values for treatments that were not positive, with the value of the vehicle control. […] 24 hours after application of test and control solutions, a volume of Steady-Glo assay reagent (Promega) equal to the volume of culture media was added and plates were incubated for ten minutes, with shaking, to allow for cell lysis. Plates were then loaded into a plate reader (FLUOstar Optima, BMG Labtech) and incubated for a further ten minutes in the dark, followed by measurement of luminescence. To reduce variation, the temperature of the plate reader chamber was maintained at 27°C throughout.
as §1
Effect concentrations (ECx) were defined relative to the effects of the estradiol concentration used as the positive control, for example EC50 is the concentration producing an effect of 50% of the positive control (estradiol, 1 nM (ERLUX) or 25 nM (ESCREEN)).
as §2, with “implicitly.” for “implicitly. However, if the individual concentrations ci are expressed as relative fractions pi to the total mixture concentration ECxMix, then equation 1 can be re-arranged to [drawing 2] (2) which allows the direct calculation of the mixture concentration that is expected to produce the mixture effect X. To form a prediction curve, equation 2 is iterated through for various effect levels resulting in sets of effects and their associated predicted mixture concentration which are then plotted to produce a graph of the effect prediction.”

Compound | Modulation of the estrogenicity of estradiol or a ternary mixture of estradiol, estrone and estriol (in words) (yeast estrogen screen) | Modulation of the REFmix effect (in words) (MCF-7 cells [2]) | Observed modulation (MCF-7 cells [2]) | Signs of estrogenicity: Active at concentration (MCF-7 cells [1]; ESCREEN) | Estrogenicity when tested alone (in words) (T47D-KBluc cells) | also measured
Nc1ccc([N+](=O)[O-])cc1[N+](=O)[O-] [2,4-dinitroaniline] | negative modulation | – | – | – | – | –
[Cl][Hg][Cl] [HgCl2, Mercury chloride] | no effect | no indication of negative modulation | None | – | – | Signs of estrogenicity (in words) (MCF-7 cells [1]; ESCREEN): None; Signs of toxicity: Possible toxicity at concentration (MCF-7 cells [1]; ESCREEN, decrease in value for treated wells below vehicle controls, assignment not certain): Possible toxicity at 10 µM and greater
C[C@@H]1C[C@@H]([C@H](O)CC2CC(=O)NC(=O)C2)C(=O)[C@@H](C)C1 [cycloheximide, reference compound] | negative modulation | – | – | – | – | –
C[S+](C)[O-] [DMSO] | no effect | – | – | – | – | –
c1ccc2c(c1)cc1ccc3cccc4ccc2c1c34 [Benzo [a] pyrene] | – | clear negative modulation | Clear negative | – | – | Signs of estrogenicity (in words) (MCF-7 cells [1]; ESCREEN): None; Estrogenicity when tested alone (in words) (MCF-7 cells [1]; ESCREEN, listed as BaP): not active; also recorded: not when tested alone; EC10 (T47D-KBluc cells; concentration producing 10% effect relative to positive control 1 nM estradiol, 24 hours): 862 nM; EC25 (T47D-KBluc cells; concentration producing 25% effect relative to positive control 1 nM estradiol, 24 hours): 2060 nM; Concentration Response Function θ^∧ max (T47D-KBluc cells; estimated maximal model asymptote, effect relative to positive control (1 nM estradiol)): 0.90; Concentration at which complete suppression (full inhibition) of REFmix effect was reached (MCF-7 cells [2]): ≤ 1 µM; Concentration at which complete suppression (full inhibition) of REFmix effect was reached (MCF-7 cells [2]; listed as BaP): around 1 µM
CCOC(=O)c1ccccc1C(=O)OCC [DEP, Di ethyl phthalate] | – | no indication of negative modulation | None | Active at 10 µM or higher | estrogenic | Signs of toxicity (in words) (MCF-7 cells [1]; ESCREEN): None; Concentration at which estrogenic activity seen (T47D-KBluc cells): 0.1 to 1 µM
CCCCOC(=O)c1ccccc1C(=O)OCc1ccccc1 [BBP, Butyl benzyl phthalate] | – | no indication of negative modulation | None | Active at 1 µM or higher | estrogenic | Signs of toxicity at the highest concentrations (in words) (MCF-7 cells [1]; ESCREEN, highest concentrations shown in Figure 2, may indicate toxicity): decline in response; Signs of toxicity: Toxic at concentration (MCF-7 cells [1]; ESCREEN, reduction in signal at concentrations above those showing estrogenicity): Toxic at 100 µM; Concentration at which estrogenic activity seen (T47D-KBluc cells): 0.1 to 1 µM; Toxicity (in words) (T47D-KBluc cells; crude measure within the assay / dose-response analysis): evidence for toxicity
CCCCOC(=O)c1ccccc1C(=O)OCCCC [DBP, Di butyl phthalate] | – | possible negative modulation | Possible negative | Active at 10 µM or higher | no estrogenicity | Signs of toxicity (in words) (MCF-7 cells [1]): None
